Results: article PMC11220700, “Activation and Purification of ß‐Glucocerebrosidase by Exploiting its Transporter LIMP‐2 – Implications for Novel Treatment Strategies in Gaucher's and Parkinson's Disease” (Advanced Science, 2024)
Entries after “also recorded” stand apart in the source; their conditions may differ. No end group written: not given here.

Columns and labels:
[1] = test system: Parkinson's disease progression; settings: ClinicalTrials.gov ID NCT02906020; cited from earlier work
Excerpt: In the context of diseases, where lysosomal GCase activity is reduced, activation of either impaired mutated GCase or residual wt GCase could provide a therapeutic strategy for restoring lysosomal function. Both in GBA1‐associated and in GBA1‐wt PD models and patients, ongoing preclinical and clinical studies are already exploring this possibility, predominantly at the stage of screening for GCase activators for the treatment of Gaucher and Parkinson's disease.^[ [57], [58] ^] Despite the expected increase of the prevalence of PD and worldwide disease burden due to increasing life expectancy a ...

[2] = test system: recombinant GCase (Cerezyme/imiglucerase); assay: 4MU GCase activity assay with recombinant enzyme Cerezyme/imiglucerase; type: biochemical; settings: varying peptide concentrations, 4MU substrate, detergent‐free, n = 3
Experimental: Activity of GCase‐containing samples (recombinant protein, cell lysate, LE fractions, conditioned culture medium) was measured using the synthetic substrate 4‐methylumbelliferyl‐β‐D‐glucopyranoside (4MU, Merck Millipore, Billerica, MA, United States, #M3633). […] of the sample (cell supernatant, SEC fractions) or 2.5 µg of total protein from whole‐cell lysates were added to the well of a black 96‐well Maxisorp plate (ThermoFisher Scientific Inc., Waltham, MA, United States, #437 111). The reaction volume was then increased to 100 µL with GCase activity buffer (see paragraph “Cell Lysis”) and a final concentration of 1 µM of 4MU substrate was added. After incubation at 37 °C for 30 min, the reaction was stopped by adding 100 µL of stop solution (0.1 M glycine, pH 10.4). GCase activity was quantified via fluorescence of released 4‐methylumbelliferone (endpoint measurement) using an Infinite 200 Pro (TECAN, Männedorf, Switzerland), SpectraMax Gemini (Molecular Devices, San José, CA, United States) or ClarioStar (BMG LABTECH, Ortenberg, Germany) multiplate reader (λ ex: 365 nm; λ em: 445 nm).
For all activity assays in the presence of recombinant LIMP‐2 or synthetic peptides, sodium taurocholate, and Triton X‐100 were omitted from the reaction to not hinder protein–protein interaction. […]

[3] = test system: lysosomal GCase in primary human fibroblasts (CTRL‐2, PD‐1, PD‐2); assay: Live cell measurement of lysosomal GCase activity (PFB‐Gluc); type: cell-based; settings: 10 µM peptide, 48 h, area between curves (total minus bafilomycin), n = 3
Experimental: GCase activity inside the lysosomes of living cells was measured via the fluorescent probe PFB‐Gluc (ThermoFisher Scientific Inc., Waltham, MA, United States, #P11947). The experimental procedure was adapted from Cuddy and Mazzulli.^[ [72] ^] Primary human fibroblasts were seeded at 20 000 cells per well on a black 96‐well cell culture dish with transparent bottom (Corning, Corning, NY, United States, #3603). For each replicate, two wells were seeded. […] The next day, the medium was changed again to 50 µL of fresh media containing treatment. On day 3, one of the two‐seeded wells for each replicate (control well) was treated with 200 nM bafilomycin 1A (Baf, Santa Cruz Biotechnology, Dallas, TX, United States, #sc‐201550A) for 1 h to inhibit lysosomal enzyme activity. […] Immediately after, the first fluorescence measurement was taken (PFB‐Gluc: λ ex: 485 nm; λ em: 538 nm; cutoff: 495 nm). The cells were kept at 37 °C and measured every 30 min for a total of 180 min. […]
For data evaluation, PFB‐Gluc measurements over time were baseline‐corrected and then normalized per well to the respective CellTag 700 signal (cell volume). Replicates were arranged in an XY diagram with their respective Baf control and the AUC for both curves was calculated. Lysosomal activity was then calculated by subtracting the baf control (non‐lysosomal activity) AUC from the non‐inhibited AUC (total activity).

[4] = test system: primary human fibroblasts (CTRL‐2, PD‐1, PD‐2); assay: Toxicity assessment via LDH release; type: cell-based
Experimental: Primary human fibroblasts were seeded on a 96‐well plate at 3 × 10^4 cells per well. The next day, the medium was replaced with a 50 µL fresh fibroblast medium containing various concentrations of L2H5‐wt peptide (0–20 µM). The cells were incubated for 72 h before the conditioned medium was harvested. LDH release to the cell medium as a marker for cell death was measured using a CyQuant LDH Cytotoxicity Assay Kit (Invitrogen, Waltham, MA, United States #C20300) following the manufacturer's instructions. For each condition, three wells were seeded and measured as triplicates. A480 and […] absorption values were measured using a ClarioStar (BMG LABTECH, Ortenberg, Germany) multiplate reader. LDH enzyme activity was determined by calculating the difference between A480 and A690 values for each well.

[5] = Precipitation / solubility of peptide in assay buffers; type: physicochemical; settings: lysosomal pH 5.0, higher concentrations
Experimental: Activity of GCase‐containing samples (recombinant protein, cell lysate, LE fractions, conditioned culture medium) was measured using the synthetic substrate 4‐methylumbelliferyl‐β‐D‐glucopyranoside (4MU, Merck Millipore, Billerica, MA, United States, #M3633). […] of the sample (cell supernatant, SEC fractions) or 2.5 µg of total protein from whole‐cell lysates were added to the well of a black 96‐well Maxisorp plate (ThermoFisher Scientific Inc., Waltham, MA, United States, #437 111). The reaction volume was then increased to 100 µL with GCase activity buffer (see paragraph “Cell Lysis”) and a final concentration of 1 µM of 4MU substrate was added. […] GCase activity was quantified via fluorescence of released 4‐methylumbelliferone (endpoint measurement) using an Infinite 200 Pro (TECAN, Männedorf, Switzerland), SpectraMax Gemini (Molecular Devices, San José, CA, United States) or ClarioStar (BMG LABTECH, Ortenberg, Germany) multiplate reader (λ ex: 365 nm; λ em: 445 nm). […]
For interaction of GCase with L2H5‐wt peptide, recombinant GCase was produced in‐house (see paragraph “Expression and Purification of His‐tagged GCase‐wt Protein”) and labeled as described for Cerezyme. […] For each replicate, a twofold dilution series of 16 samples was measured, starting at 125 µM ligand (L2H5‐wt) concentration. […]

HEK 293T cells = settings: 5 µM L2H5‐wt, LC‐MS/MS
Experimental: HEK 293T cells were seeded on 10 cm dishes. When confluence was reached, the cells were treated with 5 µM of L2H5‐wt for 2 and 24 h before harvesting. LE fractions were generated as described before (see “Expression and enrichment of lysosomes from HEK 293T cells”). Proteome analysis was performed as described in the following:
The LE fractions were processed using the single‐pot, solid‐phase‐enhanced sample‐preparation (SP3) approach.^[ [74] ^] The proteins were then digested using trypsin overnight at 37 °C. The resultant peptide solution was purified by solid phase extraction in C18 StageTips.^[ [75] ^]
Samples were analyzed using an Orbitrap Exploris 480 mass spectrometer (Thermo Fisher Scientific, Waltham, MA, United States) coupled to an EASY‐nLC 1200 UHPLC system (Thermo Fisher Scientific, Waltham, MA, United States). Peptides were separated in an in‐house packed 60‐cm analytical column (inner diameter: 75 µm; ReproSil‐Pur 120 C18‐AQ 1.9‐µm silica particles, Dr. Maisch, Ammerbuch, Germany) by online reversed‐phase chromatography through a 120‐min gradient of 2.4–32% v/v acetonitrile with 0.1% v/v formic acid at a nanoflow rate of 250 nl min^−1. The eluted peptides were sprayed directly by electrospray ionization into the mass spectrometer. […]

SEC of FRed-L2H5-wt = type: physicochemical; settings: Superdex 200 Increase 10/300 GL, PBS, 0.5 mL min^−1, UV280 and UV580
Experimental: Two hundred microliters of protein solution were injected using a 500 μL loop. Fractions of 1000 μL were collected. Based on the UV280 and UV580 elution profiles, fraction 15 containing monomeric […] concentrated using a 10K Amicon ultra 0.5 filter unit.

CC(C)(NC(=O)O[C@@H]1CN2CCC1CC2)c1csc(-c2ccc(F)cc2)n1 [venglustat]
clinical trial outcome [1]: changing GluCer levels alone may not be sufficient to positively affect disease progression

KFERQGSGSQVHFLREDDEAMDKAYQSGSGYGRKKRRQRRR [L2H5‐3xD]
effect on GCase activity, concentration dependence [2]: no effect on GCase activity | lysosomal GCase activity [3]: did not affect lysosomal GCase activity; also recorded: did not elevate lysosomal GCase activity

KFERQGSGSQVHFLREIIEAMLKAYQSGSGYGRKKRRQRRR-NH2 [L2H5‐wt]
concentration tolerated (no increase in cell death, LDH release) ([4]; 0–20 µM, 72 h, CTRL‐2, PD‐1, PD‐2 fibroblasts, n = 3): up to 10 µM | LDH release at 20 µM ([4]; 20 µM, 72 h, CTRL‐2, PD‐1, PD‐2 fibroblasts, n = 3): strong increase in LDH release; also recorded: LDH activity in the medium was significantly increased | concentration at which cell toxicity starts ([4]; primary fibroblasts): ≥ 20 µM | solubility in MST measurement [5]: insufficient solubility of the peptide at higher concentrations | L2H5‐wt‐specific tryptic peptides detected in LE fractions, 2 h (HEK 293T cells): peptides 2 and 3; also recorded: could be detected by mass spectrometry 2 h

QVHFLREIIEAMLKAYQ [FRed‐L2H5‐wt, L2H5‐wt peptide fused to FusionRed, expressed in E. coli]
aggregation in SEC profile (SEC of FRed-L2H5-wt): The earlier peak likely consists of aggregated protein
